Results taken from patent US20080171660A1, “Method of Controlling Weeds” (priority 2005, published 2008).

How the values were obtained:
Curly dock (RUMCR) = assay: Field test, weed control, post-emergence, 15 DAT (Example 1); assay type: in vivo; conditions: use rate I.7 12.5 g/ha, tribenuron-methyl 10 g/ha
From the text: (§1) The phenyluracils I and/or the other active ingredients according to the present invention were formulated in a suitable way, either separately or in mixture, e.g. as emulsifiable concentrates (EC), soluble concentrates (SL), suspo-emulsions (SE), suspension concentrates (SC) or water-dispersible granules (WG). The formulation(s) were suspended or emulsified in water as a distribution medium immediately prior to spraying. Afterwards, the aqueous mixture was evenly sprayed on the test plots by means of finely distributing nozzles.
(§2) The test plots were of uniform size (typically between 14 and 37 square meters, each) and the distribution of treated and untreated plots was organized according to a randomised bloc design. Crops were sown in rows at a season which was typical for the region and the crop according to usual farm practice. Weeds were not sown but germinated according to the natural infestation.
(§3) For pre-plant and pre-plant burn-down treatments, the plots were treated before the crop was planted, typically 7 to 28 days prior to planting. For pre-emergence treatments, the plots were treated at planting (plus or minus two days) but before emergence. For post-emergence or in-crop treatments, the plots were treated after the emergence of the weed or crop, typically 20 to 50 days after planting. […]

Wild mustard (SINAR) = assay: as above; assay type: in vivo; conditions: use rate I.7 12.5 g/ha, tribenuron-methyl 10 g/ha
From the text: as §1, §2, §3

Compound: COC(=O)c1ccccc1S(=O)(=O)NC(=O)N(C)c1nc(C)nc(OC)n1 [tribenuron-methyl]
- Weed control (% control) Curly dock (RUMCR) Found (Curly dock (RUMCR)): 40 % control
- Weed control (% control) Wild mustard (SINAR) Found (Wild mustard (SINAR)): 100 % control
